Test results: patent publication US20230398133A1, “USE OF B-CELL LYMPHOMA 2 (BCL-2) INHIBITOR AND PHARMACEUTICAL COMPOSITION FOR TREATING CELLULAR SENESCENCE-RELATED SKIN DISEASES” (Xeon Biopharmaceutical Limited, priority 2020, published 2023)

Experiments:
[1] = tested on: imiquimod-induced psoriasis mouse model; assay: Subcutaneous injection of ABT-737 injection in imiquimod-induced psoriasis mouse model (Example 5); assay type: in vivo; conditions: subcutaneous injection 25 mg/kg/day
Experimental: Effects of subcutaneous injection of 2.5 mg/ml BCL-2 inhibitor (ABT-737 injection) on imiquimod-induced psoriasis mouse model were studied.
16 healthy female Balb/c mice at the age of 8 weeks with a body weight of 20±2 g were taken, and depilated by 2×2 cm^2 on the back of the torso. After 24 h of depilation, it was confirmed that there was no abnormal change in depilated areas, and the mice were randomly divided into 4 groups, including: (1) a normal control group (3 mice): no special operations were conducted; (2) a psoriasis mouse model group (3 mice): psoriasis model was induced by external application of imiquimod; (3) a group of subcutaneous injection of ABT-737 injection (Example 1) to treat psoriasis mouse model (hereinafter referred to as ABT-737 subcutaneous injection group, 5 mice): psoriasis model was induced by external application of imiquimod, and subcutaneous injection of 25 mg/kg/day ABT-737 was conducted for treatment (that is, 200 μl of 2.5 mg/ml ABT-737 injection was given to the above-mentioned mice); (4) a group of subcutaneous injection of blank injection (Example 3) to treat psoriasis mouse model (hereinafter referred to as blank injection for subcutaneous injection group, 5 mice): psoriasis model was induced by external application of imiquimod, and subcutaneous injection of blank injection was conducted in an equal volume with the ABT-737 subcutaneous injection group.
Except for the normal control group, the above-mentioned mice are all prepared with imiquimod-induced psoriasis models: 62.5 mg of 5% imiquimod (Sichuan Med Shine Pharmaceutical Co., Ltd.) was applied evenly with a cotton swab on the depilated areas on the back of the torso of the mouse, by once a day for 7 consecutive days with an interval of 24 h. After the modeling, the skin of the mouse back modeling in the psoriasis model group was taken for tissue paraffin embedding and routine section for HE staining observation. Compared with the normal control group, the model is established based on histological changes such as parakeratosis and spinous layer hypertrophy.
Immunohistochemical staining of p16, p21 and CD4 was conducted at the same time. The ratio of p16 and p21 positive cells of skin cellular senescence-related molecules between each group was compared under a multispectral microscope, and the infiltration degree of CD4^+ T cells in the skin between each group was compared (FIG. 3). • (3) In addition, the skin specimens of the back modeling sites of the torso of a total of 10 mice in the ABT-737 subcutaneous injection group and the blank injection for subcutaneous injection group were taken, added to an RNA protection solution, cut and ground to prepare a single cell suspension. […]

[2] = tested on: imiquimod-induced psoriasis mouse model; assay: External application of ABT-737 gel and intraperitoneal injection of ABT-737 injection in imiquimod-induced psoriasis mouse model (Example 6); assay type: in vivo; conditions: intraperitoneal injection 25 mg/kg/day
Experimental: Effects of external application of BCL-2 inhibitor ABT-737 gel (Example 2) and intraperitoneal injection of 2.5 mg/ml BCL-2 inhibitor ABT-737 injection (Example 1) on imiquimod-induced psoriasis mouse model was studied.
19 healthy female Balb/c mice at the age of 8 weeks with a body weight of 20±2 g were taken, and depilated by 2×2 cm^2 on the back of the torso. After 24 h of depilation, it was confirmed that there was no abnormal change in depilated areas, and the mice were randomly divided into 5 groups, including: (1) a psoriasis mouse model group (3 mice): psoriasis model was induced by external application of imiquimod; (2) a group external application of ABT-737 gel (Example 2) for treating psoriasis mouse model (hereinafter referred to as ABT-737 gel treatment group, 5 mice): psoriasis model was induced by external application of imiquimod, and each mouse was treated with ABT-737 gel 0.5 g/day for external application; (3) a group of external application of blank gel (Example 4) to treat the psoriasis mouse model (hereinafter referred to as the blank gel control group, 5 mice): the psoriasis model was induced by external application of imiquimod, and each mouse was treated with blank gel the same amount as the ABT-737 treatment group by external application; (4) a group of intraperitoneal injection of BCL-2 inhibitor ABT-737 injection (Example 1; hereinafter referred to as ABT-737 intraperitoneal injection treatment group, 3 mice): psoriasis model was induced by external application of imiquimod, and each mouse was treated by intraperitoneal injection of 25 mg/kg/day of ABT-737 (that is, 200 μl of 2.5 mg/ml ABT-737 injection was given to the above-mentioned mice); (5) a group of blank injection for intraperitoneal injection (Example 3; hereinafter referred to as blank injection for intraperitoneal injection group, 3 mice): psoriasis model was induced by external application of imiquimod, and each mouse was treated by intraperitoneal injection of 200 μl of blank injection. […]

[3] = vs blank injection for subcutaneous injection group, FIG. 3

Structure (SMILES): CN(C)CC[C@H](CSc1ccccc1)Nc1ccc(S(=O)(=O)NC(=O)c2ccc(N3CCN(Cc4ccccc4-c4ccc(Cl)cc4)CC3)cc2)cc1[N+](=O)[O-] [ABT-737]
- dermal inflammatory cells (HE staining) ([1]; FIG. 2): significantly reduced
- downward extension of epidermal protrusions on the back skin lesions (HE staining) ([1]; FIG. 2): significantly reduced
- spinous cell layer (HE staining) ([1]; FIG. 2): thinned
- systemic damage ([1]; conclusion from spleen and DLN T cell subsets): without any systemic damage
- appearance of skin at the modeling site: skin swelling, skin thickening and scales ([1]; vs blank injection for subcutaneous injection group and psoriasis model group, FIG. 1): significant improvement
- proportion of CD4+ cells infiltrated by dermal inflammation (immunohistochemistry) [1, 3]: significantly reduced
- proportion of senescent cells staining positive in p16 and p21 in paraffin sections of skin lesions (immunohistochemistry) [1, 3]: significantly reduced
- mRNA expression levels of genes corresponding to P16, P21, BCL-2, INF-7 and IL17A in skin (real-time quantitative PCR) ([1]; vs blank injection for subcutaneous injection group, FIG. 4): decrease significantly
- improvement of the skin lesions of the mouse model (skin appearance) ([2]; FIG. 6): better than the psoriasis model group, the blank gel control group and the blank injection for intraperitoneal injection group, but is slightly inferior to the ABT-737 gel treatment group
- improvement of the skin lesions of the mouse model (HE pathological sections) ([2]; FIG. 7): better than the psoriasis model group, the blank gel control group and the blank injection for intraperitoneal injection group, but is slightly inferior to the ABT-737 gel treatment group
- reduction of p16, p21, CD4 and BCL2 positive cells (immunohistochemistry) ([2]; FIG. 8): better than the blank gel control group and the blank injection for intraperitoneal injection group, but is slightly inferior to the ABT-737 gel treatment group
